In the NIST ThermoML archive (doi:10.1016/j.jct.2005.01.009):

Assay: mn = molality of the nth substance listed, in mol/kg
Details: 101 kPa, Liquid; for speed of sound: Linear variable-path acoustic interferometer

CCCCn1cc[n+](C)c1.[Br-] [1-butyl-3-methylimidazolium bromide] + CO
Details | mass density, 298.15 K [kg/m3] | mass density, 303.15 K [kg/m3] | mass density, 308.15 K [kg/m3] | mass density, 313.15 K [kg/m3] | mass density, 318.15 K [kg/m3] | speed of sound, 298.15 K [m/s] | speed of sound, 303.15 K [m/s] | speed of sound, 308.15 K [m/s] | speed of sound, 313.15 K [m/s] | speed of sound, 318.15 K [m/s]
m1 = 0.0473 | 790.393 | 785.688 | 780.958 | 776.204 | 771.426 | – | 1090.5 | 1074.3 | 1058.2 | 1042.3
m1 = 0.0767 | 792.789 | 788.091 | 783.371 | 778.627 | 773.86 | – | 1092.6 | 1076.5 | 1060.5 | 1044.7
m1 = 0.1497 | 798.175 | 793.495 | 788.794 | 784.073 | 779.323 | 1114.1 | 1098 | 1081.9 | 1066 | 1050.2
m1 = 0.2612 | 806.303 | 801.654 | 796.988 | 792.294 | 787.582 | 1121.7 | 1105.7 | 1089.7 | 1073.9 | 1058.2
m1 = 0.3434 | 812.207 | 807.572 | 802.921 | 798.249 | 793.553 | 1127.1 | 1111.1 | 1095.2 | 1079.4 | 1063.8
m1 = 0.4912 | 822.389 | 817.794 | 813.177 | 808.542 | 803.883 | 1136.4 | 1120.6 | 1104.8 | 1089.2 | 1073.8
m1 = 0.7273 | 837.955 | 833.402 | 828.837 | 824.253 | 819.66 | 1151 | 1135.4 | 1119.9 | 1104.5 | 1089.2
m1 = 0.9756 | 852.578 | 848.25 | 843.727 | 839.188 | 834.634 | 1164.1 | 1148.7 | 1133.4 | 1118.2 | 1103.1
m1 = 1.405 | 876.422 | 871.97 | 867.512 | 863.046 | 858.563 | 1186.2 | 1171 | 1156 | 1141 | 1126.3
m1 = 2.446 | 924.879 | 920.559 | 916.245 | 911.924 | 907.596 | 1233.3 | 1218.8 | 1204.4 | 1190.1 | 1175.9
m1 = 3.896 | 976.589 | 972.412 | 968.238 | 964.059 | 959.889 | 1287.4 | 1273.5 | 1259.7 | 1246 | 1232.5

CCCCn1cc[n+](C)c1.[Br-] [1-butyl-3-methylimidazolium bromide] + O
Details | mass density, 298.15 K [kg/m3] | mass density, 303.15 K [kg/m3] | mass density, 308.15 K [kg/m3] | mass density, 313.15 K [kg/m3] | mass density, 318.15 K [kg/m3] | speed of sound, 298.15 K [m/s] | speed of sound, 303.15 K [m/s] | speed of sound, 308.15 K [m/s] | speed of sound, 313.15 K [m/s] | speed of sound, 318.15 K [m/s]
m1 = 0.0692 | 1000.44 | 999.001 | 997.35 | 995.472 | 993.421 | 1504 | 1515.9 | 1526 | 1534.6 | 1541.9
m1 = 0.1376 | 1003.7 | 1002.2 | 1000.49 | 998.581 | 996.491 | 1511.3 | 1522.7 | 1532.3 | 1540.4 | 1546.9
m1 = 0.2697 | 1009.85 | 1008.28 | 1006.54 | 1004.6 | 1002.47 | 1523.1 | 1533.3 | 1541.9 | 1549.1 | 1555
m1 = 0.6117 | 1024.93 | 1023.15 | 1021.17 | 1019.01 | 1016.68 | 1552.2 | 1561.7 | 1568.7 | 1573.8 | 1577
m1 = 1.28 | 1050.92 | 1048.78 | 1046.56 | 1044.14 | 1041.59 | 1600.3 | 1603.5 | 1605.6 | 1606.7 | 1606.9
m1 = 2.133 | 1078.26 | 1075.78 | 1073.14 | 1070.42 | 1067.58 | 1645.9 | 1644.9 | 1644.1 | 1640.6 | 1637.5
m1 = 3.115 | 1103.8 | 1100.98 | 1098.05 | 1095.04 | 1091.93 | 1682.7 | 1678.3 | 1673.3 | 1667.9 | 1662
m1 = 5.187 | 1143.52 | 1140.26 | 1136.94 | 1133.57 | 1130.13 | 1724.2 | 1716 | 1707.4 | 1698.6 | 1689.6
m1 = 7.792 | 1176.05 | 1172.57 | 1169.05 | 1165.49 | 1161.9 | 1741.2 | 1731.4 | 1721.3 | 1711 | 1700.5

CCCCn1cc[n+](C)c1.[Br-] [1-butyl-3-methylimidazolium bromide] + CCO
Details | mass density, 298.15 K [kg/m3] | mass density, 303.15 K [kg/m3] | mass density, 308.15 K [kg/m3] | mass density, 313.15 K [kg/m3] | mass density, 318.15 K [kg/m3] | speed of sound, 298.15 K [m/s] | speed of sound, 303.15 K [m/s] | speed of sound, 308.15 K [m/s] | speed of sound, 313.15 K [m/s] | speed of sound, 318.15 K [m/s]
m1 = 0.0271 | 787.221 | 782.917 | 778.581 | 774.206 | 769.798 | 1145.2 | 1128.3 | 1111.6 | 1094.9 | 1078.3
m1 = 0.0587 | 789.649 | 785.356 | 781.029 | 776.665 | 772.267 | 1147.3 | 1130.5 | 1113.8 | 1097.1 | 1080.6
m1 = 0.0846 | 791.567 | 787.288 | 782.969 | 778.613 | 774.213 | 1148.6 | 1131.9 | 1115.3 | 1098.6 | 1082.1
m1 = 0.1257 | 794.595 | 790.319 | 786.01 | 781.663 | 777.288 | 1150.8 | 1134 | 1117.4 | 1101 | 1084.5
m1 = 0.1587 | 796.91 | 792.647 | 788.343 | 784.006 | 779.628 | 1152.7 | 1136.1 | 1119.4 | 1103 | 1086.5
m1 = 0.2261 | 801.67 | 797.404 | 793.117 | 788.795 | 784.413 | 1155.8 | 1139.7 | 1123.2 | 1106.8 | 1090.5
m1 = 0.3162 | 807.896 | 803.664 | 799.393 | 795.091 | 790.753 | 1160.7 | 1144.3 | 1128 | 1111.7 | 1095.4
